Source: patent publication US10526634B2, “Cell line for screening influenza virus polymerase assembly inhibitor and construction method thereof” (Suzhou Institute of Systems Medicine, priority 2015, dated 2020)

System: PA/PB1 HEK293T (Teton) cell line
Assay: Dox-controlled inducible PA/PB1 expression, luciferase activity and Western blotting
Type: cell-based
Settings: Dox 300 ng/mL, 16 h, PA/PB1 HEK293T (Teton) cells
Description: To detect the influence of Doxycycline (Dox) (purchased from Sigma) on controlled inducible PA/PB1 expression, 100,000 PA/PB1 HEK293T (Teton) cells and 300 μL DMEM complete medium were plated in each well of a 48 well plate. After 24 h, Dox was added at concentrations of 0, 10, 30, 100, 300 ng/mL respectively. After 16 h, culture medium in supernatant was removed, and lysis was performed on ice for 10 min using 80 μL renilla luciferase lysate (purchased from Promega, E2820), lysate was mixed by pipetting, 50 μL cell lysate was transferred into a plate for luciferase detection (purchased from PE), 20 μL renilla luciferase substrate (purchased from Promega, E2820) was added into each well, and luciferase activity was detected by a microplate reader (purchased from Bio-Tek, SynergyH1). The remaining 30 μL lysate was used for immune blotting (Western Blotting), the primary antibody used was Anti-Gluc (purchased from NEB), the secondary antibody used was HRP-conjugated Donkey Anti-Rabbit (purchased from Jackson), and expression of PA/PB1 with Gluc fusion tag could be detected by a scanner (purchased from Bio-rad).
When Dox was not added into the PA/PB1 HEK293T (Teton) cell line, luciferase activity of PA/PB1 interaction was the background. […] When Dox was added at a concentration of 300 ng/mL, the difference between its signal value and the background signal value was up to 200 times.

SMILES: C[C@H]1c2cccc(O)c2C(=O)C2=C(O)[C@]3(O)C(=O)C(C(N)=O)=C(O)[C@@H](N(C)C)[C@@H]3[C@@H](O)[C@@H]21 [Dox, Doxycycline]
- difference between signal value and background signal value (luciferase activity of PA/PB1 interaction): up to 200 times
